Measurements taken from US8912186B2, “Allosteric protein kinase modulators” (Universitaet des Saarlandes, priority 2008, dated 2014).

Columns and labels:
Format in all cases: biochemical
[1] = target: T1, PKCζ (Homo sapiens, UniProt Q05513); assay: cell-free kinase activity assay; conditions: DMSO control set 100%; for remaining activity at 200 µM / remaining activity at 50 µM: read-out: percent of catalytic activity of the Kinase in the presence of compound as compared to the solvent control (DMSO): PKCζ
T1 sequence (Q05513 1-592): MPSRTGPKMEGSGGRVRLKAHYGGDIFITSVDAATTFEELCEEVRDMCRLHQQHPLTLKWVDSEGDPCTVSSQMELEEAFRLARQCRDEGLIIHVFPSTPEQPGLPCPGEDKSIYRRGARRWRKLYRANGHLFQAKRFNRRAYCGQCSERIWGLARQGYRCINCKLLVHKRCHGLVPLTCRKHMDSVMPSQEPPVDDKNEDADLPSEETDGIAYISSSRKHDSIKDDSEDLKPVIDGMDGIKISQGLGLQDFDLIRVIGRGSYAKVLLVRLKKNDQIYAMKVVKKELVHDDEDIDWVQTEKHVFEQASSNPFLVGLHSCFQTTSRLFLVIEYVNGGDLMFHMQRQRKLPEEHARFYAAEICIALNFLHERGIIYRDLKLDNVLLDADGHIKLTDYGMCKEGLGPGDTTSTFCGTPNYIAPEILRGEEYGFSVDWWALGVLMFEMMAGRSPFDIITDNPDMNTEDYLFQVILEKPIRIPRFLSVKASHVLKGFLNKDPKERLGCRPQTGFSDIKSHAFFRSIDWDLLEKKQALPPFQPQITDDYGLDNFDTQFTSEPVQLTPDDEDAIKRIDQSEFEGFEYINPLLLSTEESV

[2] = target: PKA (Homo sapiens, UniProt P17612); assay: cell-free kinase activity assay; conditions: DMSO control set 100%
[3] = target: T2, PDK1 (Homo sapiens, UniProt O15530); assay: cell-free kinase activity assay (ATPgamma[32P], T308tide substrate); conditions: for activity at 50 µM / activity at 200 µM / percent of catalytic activity of the Kinase in the presence of compound as compared to the solvent control (DMSO): PDK1: DMSO control set 100%; for activity at 50 µM / activity at 200 µM: read-out: percent of catalytic activity of the Kinase in the presence of compound as compared to the solvent control (DMSO): PDK1; for max. activation of PDK1 (fold): maximum activation achievable, compared to the basal activity of PDK1
T2 construct: GST
T2 sequence (O15530 1-556): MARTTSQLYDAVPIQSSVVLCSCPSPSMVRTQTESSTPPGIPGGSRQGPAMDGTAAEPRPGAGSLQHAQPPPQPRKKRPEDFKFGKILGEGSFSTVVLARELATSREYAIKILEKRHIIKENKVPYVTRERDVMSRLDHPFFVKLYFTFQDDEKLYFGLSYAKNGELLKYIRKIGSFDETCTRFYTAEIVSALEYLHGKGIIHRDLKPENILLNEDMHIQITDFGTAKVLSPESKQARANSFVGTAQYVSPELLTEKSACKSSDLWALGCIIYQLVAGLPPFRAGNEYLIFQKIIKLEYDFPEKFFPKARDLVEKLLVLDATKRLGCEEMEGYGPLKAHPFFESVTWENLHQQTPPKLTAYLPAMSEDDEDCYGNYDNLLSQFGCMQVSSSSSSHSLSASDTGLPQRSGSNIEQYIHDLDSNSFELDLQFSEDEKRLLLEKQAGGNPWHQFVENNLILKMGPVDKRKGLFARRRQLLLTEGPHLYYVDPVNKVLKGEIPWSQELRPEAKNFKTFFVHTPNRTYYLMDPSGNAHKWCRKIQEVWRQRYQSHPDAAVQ
Description: Principle of the cell-free kinase activity assay: In general, the activity of the compounds as protein kinase inhibitors or activators may be assayed in vitro (cell free assay is meant here), in vivo or in a cell line. In vitro assays include assays that determine inhibition or activation of either the phosphorylation activity or ATPase activity of the activated protein kinase. Alternate in vitro assays quantitate the ability of the inhibitor to bind to the protein kinase. Compound binding may be measured by radiolabelling the compound prior to binding, isolating the inhibitor or activator/protein kinase complex and determining the amount of radiolabel bound. Alternatively, inhibitor or activator binding may be determined by running a competition experiment where new compounds are incubated with the protein kinase bound to known radioligands. Newer methods comprise fluorescence polarisation assays and surface plasmon resonance dependent techniques. […] The activity and modulation of activity is measured using a standard ATPgamma[^32P] assay as described earlier. […] The concentration of T308tide is 1 mM and the amount of PDK1 used is 200 ng. Reactions are carried out at room temperature. Reaction is started by addition of ATP-Mg mix and stopped with phosphoric acid after 30 min. Stopped reactions were spotted on to phosphocellulose paper (P81, Whatman) and washed. After drying, the radioactivity associated to the band was quantified.

[4] = target: S6K (Homo sapiens, UniProt P23443); assay: cell-free kinase activity assay; conditions: DMSO control set 100%; for remaining activity at 200 µM: 200 μM compound
[5] = target: PKBβ (Homo sapiens, UniProt P31751); assay: cell-free kinase activity assay; conditions: DMSO control set 100%
[6] = target: PRK2 (Homo sapiens, UniProt Q16513); assay: cell-free kinase activity assay; conditions: DMSO control set 100%
[7] = target: T3, SGK (Homo sapiens, UniProt O00141); assay: cell-free kinase activity assay; conditions: DMSO control set 100%; for remaining activity at 200 µM: read-out: percent of catalytic activity of the Kinase in the presence of compound as compared to the solvent control (DMSO): SGK
T3 sequence (O00141 1-431): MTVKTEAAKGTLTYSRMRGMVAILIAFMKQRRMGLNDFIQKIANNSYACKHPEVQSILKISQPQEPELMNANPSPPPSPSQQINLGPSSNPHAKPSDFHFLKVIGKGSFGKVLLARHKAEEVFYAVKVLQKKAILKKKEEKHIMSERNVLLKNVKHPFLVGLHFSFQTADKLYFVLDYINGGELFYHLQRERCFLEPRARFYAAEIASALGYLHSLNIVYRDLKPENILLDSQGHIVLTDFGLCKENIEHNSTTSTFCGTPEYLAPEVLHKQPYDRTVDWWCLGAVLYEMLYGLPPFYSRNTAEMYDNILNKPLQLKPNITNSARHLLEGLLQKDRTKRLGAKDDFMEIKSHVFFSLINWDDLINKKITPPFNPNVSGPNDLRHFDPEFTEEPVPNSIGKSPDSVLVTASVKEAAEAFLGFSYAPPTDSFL

[8] = read-out: percent of catalytic activity of the Kinase in the presence of compound as compared to the solvent control (DMSO): S6K
[9] = concentration of the compound required to activate half maximally, n.e.: no effect
[10] = 200 μM compound, read-out: percent of catalytic activity of the Kinase in the presence of compound as compared to the solvent control (DMSO): PKBβ

Chain of PRK2 (Q16513 whole entry, species assumed): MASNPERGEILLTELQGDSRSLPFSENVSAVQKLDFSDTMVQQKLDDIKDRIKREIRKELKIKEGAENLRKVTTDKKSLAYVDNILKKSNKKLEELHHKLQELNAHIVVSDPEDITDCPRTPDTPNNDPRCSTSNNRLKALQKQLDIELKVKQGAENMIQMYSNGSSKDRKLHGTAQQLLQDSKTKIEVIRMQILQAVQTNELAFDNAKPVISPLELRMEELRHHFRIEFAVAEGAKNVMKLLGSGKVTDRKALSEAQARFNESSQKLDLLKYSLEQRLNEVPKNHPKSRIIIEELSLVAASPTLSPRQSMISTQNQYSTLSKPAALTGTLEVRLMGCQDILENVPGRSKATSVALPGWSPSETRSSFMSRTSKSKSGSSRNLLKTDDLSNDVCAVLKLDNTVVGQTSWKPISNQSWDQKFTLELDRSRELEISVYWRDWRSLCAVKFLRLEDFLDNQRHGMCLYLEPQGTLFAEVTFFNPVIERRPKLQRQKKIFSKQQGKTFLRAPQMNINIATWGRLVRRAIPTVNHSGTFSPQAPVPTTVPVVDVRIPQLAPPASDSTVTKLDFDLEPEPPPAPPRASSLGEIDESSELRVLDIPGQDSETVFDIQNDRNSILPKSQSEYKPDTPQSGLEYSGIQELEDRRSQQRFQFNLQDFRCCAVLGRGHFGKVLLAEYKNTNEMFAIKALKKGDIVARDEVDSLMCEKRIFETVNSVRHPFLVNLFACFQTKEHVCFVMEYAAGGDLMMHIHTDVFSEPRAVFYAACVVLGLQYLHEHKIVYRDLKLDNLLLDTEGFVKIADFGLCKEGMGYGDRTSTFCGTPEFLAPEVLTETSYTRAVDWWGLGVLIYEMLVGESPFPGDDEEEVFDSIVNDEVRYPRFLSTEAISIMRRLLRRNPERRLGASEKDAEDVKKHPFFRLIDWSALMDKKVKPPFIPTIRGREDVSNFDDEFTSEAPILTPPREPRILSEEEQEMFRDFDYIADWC
Chain of S6K (P23443 whole entry): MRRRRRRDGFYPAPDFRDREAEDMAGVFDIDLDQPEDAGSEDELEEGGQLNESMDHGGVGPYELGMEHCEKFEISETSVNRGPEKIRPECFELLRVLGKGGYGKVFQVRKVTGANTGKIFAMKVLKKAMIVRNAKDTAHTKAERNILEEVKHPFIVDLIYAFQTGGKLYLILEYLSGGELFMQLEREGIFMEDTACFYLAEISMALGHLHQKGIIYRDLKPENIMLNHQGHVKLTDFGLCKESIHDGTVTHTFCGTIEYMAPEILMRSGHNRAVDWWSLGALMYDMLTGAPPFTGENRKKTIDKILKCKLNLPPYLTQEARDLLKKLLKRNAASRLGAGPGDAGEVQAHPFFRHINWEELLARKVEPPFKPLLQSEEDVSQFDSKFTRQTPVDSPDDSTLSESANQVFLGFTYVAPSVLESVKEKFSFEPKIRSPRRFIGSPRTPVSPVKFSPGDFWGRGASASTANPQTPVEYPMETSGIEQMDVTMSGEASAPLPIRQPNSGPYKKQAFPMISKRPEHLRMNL
Chain of PKBβ (P31751 whole entry, species assumed): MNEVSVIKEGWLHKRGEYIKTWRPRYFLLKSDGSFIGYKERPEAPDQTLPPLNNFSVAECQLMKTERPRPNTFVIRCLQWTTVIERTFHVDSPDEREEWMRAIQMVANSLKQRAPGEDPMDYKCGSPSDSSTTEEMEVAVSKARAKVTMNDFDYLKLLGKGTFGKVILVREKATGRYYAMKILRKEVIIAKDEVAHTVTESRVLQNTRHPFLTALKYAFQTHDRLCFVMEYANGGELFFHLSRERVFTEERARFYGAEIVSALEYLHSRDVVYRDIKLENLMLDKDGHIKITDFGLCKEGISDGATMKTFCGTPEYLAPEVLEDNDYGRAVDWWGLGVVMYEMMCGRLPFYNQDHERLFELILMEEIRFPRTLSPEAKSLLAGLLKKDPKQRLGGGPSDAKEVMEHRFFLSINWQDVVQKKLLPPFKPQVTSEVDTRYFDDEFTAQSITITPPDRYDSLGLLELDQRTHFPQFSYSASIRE

SMILES | percent of catalytic activity of the Kinase in the presence of compound as compared to the solvent control (DMSO): PKCζ ([1]; 50 μM compound) | remaining activity at 200 µM ([1]; 200 μM compound) [%] | percent of catalytic activity of the Kinase in the presence of compound as compared to the solvent control (DMSO): PKA ([2]; 50 μM compound) | percent of catalytic activity of the Kinase in the presence of compound as compared to the solvent control (DMSO): PKA ([2]; 200 μM compound) | activity at 50 µM ([3]; 50 μM compound) [%] | activity at 200 µM ([3]; 200 μM compound) [%] | percent of catalytic activity of the Kinase in the presence of compound as compared to the solvent control (DMSO): S6K ([4]; 50 μM compound) | remaining activity at 200 µM [4, 8] [%] | percent of catalytic activity of the Kinase in the presence of compound as compared to the solvent control (DMSO): PKBβ ([5]; 50 μM compound) | percent of catalytic activity of the Kinase in the presence of compound as compared to the solvent control (DMSO): PKBβ ([5]; 200 μM compound) | percent of catalytic activity of the Kinase in the presence of compound as compared to the solvent control (DMSO): PRK2 ([6]; 50 μM compound) | percent of catalytic activity of the Kinase in the presence of compound as compared to the solvent control (DMSO): PRK2 ([6]; 200 μM compound) | percent of catalytic activity of the Kinase in the presence of compound as compared to the solvent control (DMSO): SGK ([7]; 50 μM compound) | remaining activity at 200 µM ([7]; 200 μM compound) [%] | remaining activity at 50 µM ([1]; 50 μM compound) [%] | max. activation of PDK1 (fold) ([3]; n.e.: no effect) | remaining activity at 200 µM [5, 10] [%] | also measured
O=C(O)CC(Cc1nc2cc(Cl)c(Cl)cc2[nH]1)c1ccccc1 (centres unmarked) [PS 163, 4-(5,6-Dichloro-2-benzimidazolyl)-3-phenylbutanoic acid] | no effect | 50 | no effect | no effect | ~250 | > 250 | no effect | ~50 | no effect | no effect | no effect | no effect | no effect | ~60 |  |  |  | 
O=C(O)/C=C(/CCc1ccc(C(F)(F)F)cc1)c1ccccc1 [PS-T5, (Z)-3-Phenyl-5-[4-(trifluoromethyl)phenyl]pent-2-enoic acid] |  | ~0 | no effect |  | > 250 | > 250 | no effect | ~60 | no effect |  | no effect | no effect | weak inhib. | ~20 | ~0 | 4.7 fold | ~80 | remaining activity at 200 µM ([2]; 200 μM compound, read-out: percent of catalytic activity of the Kinase in the presence of compound as compared to the solvent control (DMSO): PKA): ~60%; AC50 [3, 9]: 13.8 µM

Second part, led by results:

percent of catalytic activity of the Kinase in the presence of compound as compared to the solvent control (DMSO): PKCζ ([1]; 50 μM compound) | remaining activity at 200 µM ([1]; 200 μM compound) [%] | percent of catalytic activity of the Kinase in the presence of compound as compared to the solvent control (DMSO): PKA ([2]; 50 μM compound) | percent of catalytic activity of the Kinase in the presence of compound as compared to the solvent control (DMSO): PKA ([2]; 200 μM compound) | activity at 50 µM ([3]; 50 μM compound) [%] | activity at 200 µM ([3]; 200 μM compound) [%] | percent of catalytic activity of the Kinase in the presence of compound as compared to the solvent control (DMSO): S6K ([4]; 50 μM compound) | remaining activity at 200 µM [4, 8] [%] | percent of catalytic activity of the Kinase in the presence of compound as compared to the solvent control (DMSO): PKBβ ([5]; 50 μM compound) | percent of catalytic activity of the Kinase in the presence of compound as compared to the solvent control (DMSO): PKBβ ([5]; 200 μM compound) | percent of catalytic activity of the Kinase in the presence of compound as compared to the solvent control (DMSO): PRK2 ([6]; 50 μM compound) | percent of catalytic activity of the Kinase in the presence of compound as compared to the solvent control (DMSO): PRK2 ([6]; 200 μM compound) | percent of catalytic activity of the Kinase in the presence of compound as compared to the solvent control (DMSO): SGK ([7]; 50 μM compound) | remaining activity at 200 µM ([7]; 200 μM compound) [%] | remaining activity at 50 µM ([1]; 50 μM compound) [%] | max. activation of PDK1 (fold) ([3]; n.e.: no effect) | remaining activity at 200 µM [5, 10] [%] | SMILES | also measured
no effect |  | no effect | no effect | 240 | 310 | no effect | ~80 | no effect | no effect | no effect | no effect | no effect |  |  |  |  | O=C(O)CC(C(=O)N1CCc2ccccc2C1)c1ccc(Cl)cc1 (centres unmarked) [PS 152] | percent of catalytic activity of the Kinase in the presence of compound as compared to the solvent control (DMSO): PKCζ ([1]; 200 μM compound): no effect; percent of catalytic activity of the Kinase in the presence of compound as compared to the solvent control (DMSO): SGK ([7]; 200 μM compound): no effect
 | 30 to 40 | no effect | no effect | 300 | 400 | no effect | ~80 | no effect | no effect | no effect | no effect | no effect | 70 to 80 | 80 |  |  | O=C(O)CC(CC(=O)N1Cc2ccc(Cl)cc2C1)c1ccc(Cl)cc1 (centres unmarked) [PS 141] | 
 | 0 | no effect | no effect |  |  |  | 25 |  |  | no effect | no effect | no effect | ~20 | 10 to 20 | n.e. | 25 | O=C(O)/C=C(/c1ccccc1)c1cc2cc(Cl)ccc2s1 [PS 118, (Z)-3-(5-Chloro-2-benzothiophenyl)-3-phenylacrylic acid] | percent of catalytic activity of the Kinase in the presence of compound as compared to the solvent control (DMSO): PDK1 ([3]; 50 μM compound): no effect; percent of catalytic activity of the Kinase in the presence of compound as compared to the solvent control (DMSO): PDK1 ([3]; 200 μM compound): no effect; AC50 PDK1 (μM) [3, 9]: n.e.; remaining activity at 50 µM ([4]; 50 μM compound, read-out: percent of catalytic activity of the Kinase in the presence of compound as compared to the solvent control (DMSO): S6K): 85%; remaining activity at 50 µM ([5]; 50 μM compound, read-out: percent of catalytic activity of the Kinase in the presence of compound as compared to the solvent control (DMSO): PKBβ): 90%
